Measurements from the NIST ThermoML archive (doi:10.1016/j.fluid.2017.06.022).
± gives the expanded uncertainty stated by the source.

Test: xn = mol fraction of the nth substance listed
Details: Liquid, Bellows volumetry

C=CC [propene] + Cc1ccccc1
mass density (295.7 K, 700 kPa, x1 = 0.53): 679.7 ± 16 kg/m3 | mass density (295.7 K, 1000 kPa, x1 = 0.53): 680.5 ± 16 kg/m3 | mass density (295.7 K, 1400 kPa, x1 = 0.53): 681.2 ± 16 kg/m3 | mass density (295.7 K, 1900 kPa, x1 = 0.53): 681.6 ± 16 kg/m3 | mass density (295.7 K, 2300 kPa, x1 = 0.53): 682.4 ± 16 kg/m3 | mass density (295.7 K, 2900 kPa, x1 = 0.53): 683.2 ± 16 kg/m3 | mass density (295.7 K, 3400 kPa, x1 = 0.53): 684 ± 16 kg/m3 | mass density (295.7 K, 3600 kPa, x1 = 0.53): 684 ± 16 kg/m3 | mass density (295.7 K, 5200 kPa, x1 = 0.53): 685.5 ± 16 kg/m3 | mass density (295.7 K, 7300 kPa, x1 = 0.53): 688.3 ± 16 kg/m3 | mass density (295.7 K, 8600 kPa, x1 = 0.53): 689.5 ± 17 kg/m3 | mass density (295.7 K, 10700 kPa, x1 = 0.53): 691.9 ± 17 kg/m3 | mass density (295.7 K, 13500 kPa, x1 = 0.53): 694.7 ± 17 kg/m3 | mass density (295.7 K, 23900 kPa, x1 = 0.53): 704.6 ± 17 kg/m3 | mass density (295.7 K, 31000 kPa, x1 = 0.53): 710.9 ± 17 kg/m3 | mass density (295.7 K, 37900 kPa, x1 = 0.53): 716 ± 17 kg/m3 | mass density (295.7 K, 44100 kPa, x1 = 0.53): 720.7 ± 17 kg/m3 | mass density (295.7 K, 51800 kPa, x1 = 0.53): 726.4 ± 17 kg/m3 | mass density (295.7 K, 58300 kPa, x1 = 0.53): 730.4 ± 18 kg/m3 | mass density (295.7 K, 63200 kPa, x1 = 0.53): 733.6 ± 18 kg/m3 | mass density (295.7 K, 67000 kPa, x1 = 0.53): 735.9 ± 18 kg/m3 | mass density (295.9 K, 200 kPa, x1 = 0.1159): 797.6 ± 19 kg/m3 | mass density (295.9 K, 300 kPa, x1 = 0.1159): 798.9 ± 19 kg/m3 | mass density (295.9 K, 600 kPa, x1 = 0.1159): 799.5 ± 19 kg/m3 | mass density (295.9 K, 1300 kPa, x1 = 0.1159): 800.1 ± 19 kg/m3 | mass density (295.9 K, 2000 kPa, x1 = 0.1159): 800.7 ± 19 kg/m3 | mass density (295.9 K, 3500 kPa, x1 = 0.1159): 802 ± 19 kg/m3 | mass density (295.9 K, 7200 kPa, x1 = 0.1159): 805.2 ± 19 kg/m3 | mass density (295.9 K, 10200 kPa, x1 = 0.1159): 807.7 ± 19 kg/m3 | mass density (295.9 K, 13500 kPa, x1 = 0.1159): 810.3 ± 20 kg/m3 | mass density (296.4 K, 1000 kPa, x1 = 0.7612): 606.8 ± 15 kg/m3 | mass density (296.4 K, 1400 kPa, x1 = 0.7612): 610 ± 15 kg/m3 | mass density (296.4 K, 2200 kPa, x1 = 0.7612): 611.2 ± 15 kg/m3 | mass density (296.4 K, 3300 kPa, x1 = 0.7612): 613.2 ± 15 kg/m3 | mass density (296.4 K, 5200 kPa, x1 = 0.7612): 616.4 ± 15 kg/m3 | mass density (296.4 K, 6900 kPa, x1 = 0.7612): 619.3 ± 15 kg/m3 | mass density (296.4 K, 10300 kPa, x1 = 0.7612): 624.6 ± 15 kg/m3 | mass density (296.4 K, 10400 kPa, x1 = 0.7612): 624.6 ± 15 kg/m3 | mass density (296.4 K, 13800 kPa, x1 = 0.7612): 629.7 ± 15 kg/m3 | mass density (296.4 K, 17200 kPa, x1 = 0.7612): 634.4 ± 15 kg/m3 | mass density (296.4 K, 24100 kPa, x1 = 0.7612): 643.5 ± 16 kg/m3 | mass density (296.4 K, 31100 kPa, x1 = 0.7612): 652.1 ± 16 kg/m3 | mass density (296.4 K, 37700 kPa, x1 = 0.7612): 659.4 ± 16 kg/m3 | mass density (296.4 K, 44500 kPa, x1 = 0.7612): 666 ± 16 kg/m3 | mass density (296.4 K, 51400 kPa, x1 = 0.7612): 672.7 ± 16 kg/m3 | mass density (296.4 K, 57800 kPa, x1 = 0.7612): 678 ± 16 kg/m3 | mass density (296.4 K, 62900 kPa, x1 = 0.7612): 682 ± 16 kg/m3 | mass density (296.4 K, 66900 kPa, x1 = 0.7612): 685 ± 16 kg/m3 | mass density (324.6 K, 1700 kPa, x1 = 0.7612): 572 ± 14 kg/m3 | mass density (324.6 K, 1900 kPa, x1 = 0.7612): 572.3 ± 14 kg/m3 | mass density (324.6 K, 2600 kPa, x1 = 0.7612): 574.4 ± 14 kg/m3 | mass density (324.6 K, 3600 kPa, x1 = 0.7612): 576.9 ± 14 kg/m3 | mass density (324.6 K, 5300 kPa, x1 = 0.7612): 580.5 ± 14 kg/m3 | mass density (324.6 K, 7000 kPa, x1 = 0.7612): 584.1 ± 14 kg/m3 | mass density (324.6 K, 10500 kPa, x1 = 0.7612): 591.1 ± 14 kg/m3 | mass density (324.6 K, 17400 kPa, x1 = 0.7612): 603.7 ± 14 kg/m3 | mass density (324.6 K, 24200 kPa, x1 = 0.7612): 614.4 ± 15 kg/m3 | mass density (324.6 K, 30900 kPa, x1 = 0.7612): 623.8 ± 15 kg/m3 | mass density (324.6 K, 37800 kPa, x1 = 0.7612): 632.7 ± 15 kg/m3 | mass density (324.6 K, 44500 kPa, x1 = 0.7612): 640.5 ± 15 kg/m3
